Assay results reported in PubChem BioAssay AID1963875 (Molecular Pharmacology Branch, DTP, NCI, 2024).

Tested on: KRAS-mutant PDC complex spheroid viability
Assay: Anticancer human tumor 186277-243-T-J2-PDC patient-derived colon adenocarcinoma cell line growth inhibition [KRAS2]
Details: for IC50: curve of first compound; for viability, T/C: stronger effect = lower value
How it was run: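 Combination screen of spheroid viability in tumor-cell co-cultures with endothelial (HUVEC) and mesenchymal stem cell stroma. Each agent was tested in half-log dilutions, topping at clinical Cmax or at 10 microM without a known Cmax.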

[1] = second compound 0.1 µM, first compound 0.000316 µM
[2] = second compound 0.1 µM, first compound 0.001 µM
[3] = second compound 0.1 µM, first compound 0.00316 µM
[4] = second compound 0.1 µM, first compound 0.01 µM
[5] = second compound 0.1 µM, first compound 0.0316 µM
[6] = second compound 0.1 µM, first compound 0.1 µM
[7] = second compound 0.316 µM, first compound 0.000316 µM
[8] = second compound 0.316 µM, first compound 0.001 µM
[9] = second compound 0.316 µM, first compound 0.00316 µM
[10] = second compound 0.316 µM, first compound 0.01 µM
[11] = second compound 0.316 µM, first compound 0.0316 µM
[12] = second compound 0.316 µM, first compound 0.1 µM
[13] = second compound 1 µM, first compound 0.000316 µM
[14] = second compound 1 µM, first compound 0.001 µM
[15] = second compound 1 µM, first compound 0.00316 µM
[16] = second compound 1 µM, first compound 0.01 µM
[17] = second compound 1 µM, first compound 0.0316 µM
[18] = second compound 1 µM, first compound 0.1 µM
[19] = second compound 3.16 µM, first compound 0.000316 µM
[20] = second compound 3.16 µM, first compound 0.001 µM
[21] = second compound 3.16 µM, first compound 0.00316 µM
[22] = second compound 3.16 µM, first compound 0.01 µM
[23] = second compound 3.16 µM, first compound 0.0316 µM
[24] = second compound 3.16 µM, first compound 0.1 µM
[25] = second compound 10 µM, first compound 0.000316 µM
[26] = second compound 10 µM, first compound 0.001 µM
[27] = second compound 10 µM, first compound 0.00316 µM
[28] = second compound 10 µM, first compound 0.01 µM
[29] = second compound 10 µM, first compound 0.0316 µM
[30] = second compound 10 µM, first compound 0.1 µM
[31] = second compound 0.1 µM, first compound 0.316 µM
[32] = second compound 0.1 µM, first compound 1 µM
[33] = second compound 0.1 µM, first compound 3.16 µM
[34] = second compound 0.1 µM, first compound 10 µM
[35] = second compound 0.316 µM, first compound 0.316 µM
[36] = second compound 0.316 µM, first compound 1 µM
[37] = second compound 0.316 µM, first compound 3.16 µM
[38] = second compound 0.316 µM, first compound 10 µM
[39] = second compound 1 µM, first compound 0.316 µM
[40] = second compound 1 µM, first compound 1 µM
[41] = second compound 1 µM, first compound 3.16 µM
[42] = second compound 1 µM, first compound 10 µM
[43] = second compound 3.16 µM, first compound 0.316 µM
[44] = second compound 3.16 µM, first compound 1 µM
[45] = second compound 3.16 µM, first compound 3.16 µM
[46] = second compound 3.16 µM, first compound 10 µM
[47] = second compound 10 µM, first compound 0.316 µM
[48] = second compound 10 µM, first compound 1 µM
[49] = second compound 10 µM, first compound 3.16 µM
[50] = second compound 10 µM, first compound 10 µM
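Throughout, for viability, T/C: viability read after seven days of compound exposure; 100% = DMSO vehicle-treated spheroids so lower means less viable.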

Row | SMILES | IC50 (second compound 0.1 µM) [nM] | IC50 (second compound 0.316 µM) [nM] | IC50 (second compound 1 µM) [nM] | IC50 (second compound 3.16 µM) [nM] | IC50 (second compound 10 µM) [nM] | viability, T/C [1] [%] | viability, T/C [2] [%] | viability, T/C [3] [%] | viability, T/C [4] [%] | viability, T/C [5] [%] | viability, T/C [6] [%] | viability, T/C [7] [%] | viability, T/C [11] [%] | viability, T/C [12] [%] | viability, T/C [17] [%] | viability, T/C [18] [%] | viability, T/C [23] [%] | viability, T/C [24] [%] | viability, T/C [29] [%] | viability, T/C [30] [%] | further results
1 | CC(C)n1nc(-c2ccc3oc(N)nc3c2)c2c(N)ncnc21 + CNCc1ccccc1-c1csc(C(C)Nc2nc(C)nc3cc(OC)c(OC)cc23)c1 | 5.68 | 4.02 | 5.06 | 1.17 | < 0.316 | 108 | 92.5 | 57 | 40.3 | 28.6 | 16.6 | 98.8 | 23.4 | 19.7 | 22.9 | 14.9 | 8.24 | 1.61 | 0.1 | 0.16 | viability, T/C [8]: 80.8%; viability, T/C [9]: 54.7%; viability, T/C [10]: 32.9%; viability, T/C [13]: 96.3%; viability, T/C [14]: 88.8%; viability, T/C [15]: 55.8%; viability, T/C [16]: 37.7%; viability, T/C [19]: 63.9%; viability, T/C [20]: 55.9%; viability, T/C [21]: 14%; viability, T/C [22]: 16.8%; viability, T/C [25]: 0.14%; viability, T/C [26]: 0.13%; viability, T/C [27]: 0.11%; viability, T/C [28]: 0.1%
2 | CC1(C)CCC(CN2CCN(c3ccc(C(=O)NS(=O)(=O)c4ccc(NCC5CCOCC5)c([N+](=O)[O-])c4)c(Oc4cnc5[nH]ccc5c4)c3)CC2)=C(c2ccc(Cl)cc2)C1 + CNCc1ccccc1-c1csc(C(C)Nc2nc(C)nc3cc(OC)c(OC)cc23)c1 | 2130 | 2260 | 2160 | 90.7 | < 31.6 | – | – | – | – | 120 | 102 | – | 115 | 117 | 126 | 125 | 80.2 | 44.8 | 0.17 | 0.16 | viability, T/C [31]: 107%; viability, T/C [32]: 110%; viability, T/C [33]: 19.2%; viability, T/C [34]: 1.52%; viability, T/C [35]: 117%; viability, T/C [36]: 119%; viability, T/C [37]: 22.1%; viability, T/C [38]: 1.59%; viability, T/C [39]: 112%; viability, T/C [40]: 116%; viability, T/C [41]: 17.2%; viability, T/C [42]: 0.88%; viability, T/C [43]: 29.2%; viability, T/C [44]: 7.62%; viability, T/C [45]: 0.22%; viability, T/C [46]: 0.13%; viability, T/C [47]: 0.14%; viability, T/C [48]: 0.12%; viability, T/C [49]: 0.12%; viability, T/C [50]: 0.2%
3 | COc1cc2nccc(Oc3ccc(NC(=O)C4(C(=O)Nc5ccc(F)cc5)CC4)cc3)c2cc1OC + CNCc1ccccc1-c1csc(C(C)Nc2nc(C)nc3cc(OC)c(OC)cc23)c1 | 1850 | 1910 | 1680 | < 31.6 | < 31.6 | – | – | – | – | 112 | 106 | – | 113 | 104 | 102 | 112 | 45.5 | 48 | 0.16 | 0.15 | viability, T/C [31]: 115%; viability, T/C [32]: 93.3%; viability, T/C [33]: 11.4%; viability, T/C [34]: 12.4%; viability, T/C [35]: 113%; viability, T/C [36]: 100%; viability, T/C [37]: 10.8%; viability, T/C [38]: 4.47%; viability, T/C [39]: 121%; viability, T/C [40]: 85.7%; viability, T/C [41]: 6.86%; viability, T/C [42]: 2.01%; viability, T/C [43]: 26.6%; viability, T/C [44]: 0.18%; viability, T/C [45]: 0.06%; viability, T/C [46]: 0.12%; viability, T/C [47]: 0.13%; viability, T/C [48]: 0.13%; viability, T/C [49]: 0.13%; viability, T/C [50]: 0.21%
4 | Cn1ncnc1[C@H]1c2n[nH]c(=O)c3cc(F)cc(c23)N[C@@H]1c1ccc(F)cc1 + CNCc1ccccc1-c1csc(C(C)Nc2nc(C)nc3cc(OC)c(OC)cc23)c1 | > 100 | > 100 | > 100 | < 0.316 | < 0.316 | 113 | 109 | 109 | 101 | 83.8 | 68.9 | 117 | 76.4 | 68.7 | 70.4 | 59.5 | 14.5 | 10.9 | 0.13 | 0.21 | viability, T/C [8]: 106%; viability, T/C [9]: 115%; viability, T/C [10]: 89.3%; viability, T/C [13]: 112%; viability, T/C [14]: 110%; viability, T/C [15]: 97.9%; viability, T/C [16]: 86%; viability, T/C [19]: 25.5%; viability, T/C [20]: 0.4%; viability, T/C [21]: 28.8%; viability, T/C [22]: 12.7%; viability, T/C [25]: 0.14%; viability, T/C [26]: 0.14%; viability, T/C [27]: 0.14%; viability, T/C [28]: 0.13%
